From US20070099958A1, “Protease inhibitors” (ProZymex A/S, priority 2003, published 2007)

What was measured:
[1] = biological target: T1, Human DPP-I (Homo sapiens, UniProt P53634); assay: Human dipeptidyl peptidase I (DPP-I) assay; format: biochemical; conditions: Gly-Phe-AFC substrate, pH 6.0, 37° C.; read-out: Primary enzymatic screening (IC50) DPP-I
T1 construct: purchased UniZyme A/S
Experimental: Human dipeptidyl Peptidase I (DPP-I) Assay
Using this assay, the IC50 value of a compound of the invention as a DPP-I inhibitor was determined using an AFC substrate.
100 mM sodium phosphate (8.9 g Na2HPO4; M=177.99), 150 mM KCl (5.6 g KCl; M=74.6) and 1.5 mM EDTA (279 mg EDTA; M=372.2) was dissolved in 500 mL H2O, and pH was adjusted to 6.0. Cysteine*HCl (Sigma C-1276; M=157.6), 1 mg/mL assay buffer, corresponding to 6 mM, was added to the solution for activation of the DPP-1 enzyme.
Gly-Phe-AFC*TFA (Enzyme Systems Products AFC-033) was used as the substrate for determination of IC50 values. Km was 270 μM. The substrate was solubilized in DMSO to give a 7.5 mM stock solution (2.2 mg of substrate was added to 0.5 mL DMSO).
Human DPP-I (hDDP-I; obtained from UniZyme A/S, DK-2970Hørsholm, Denmark) was stored at −20° C. in a buffer containing 2.5 mM Na-phosphate, 150 mM NaCl, 2 mM cysteamine, 50% glycerol, pH 7.0 at a concentration of 2.5 mg/mL. This stock solution was diluted 200 times in the assay buffer.
The assay was performed in 96-well plates. […] The excitation wavelength was 400 nm, and the emission was measured at 505 nm for 10 minutes at 37° C. […] In the software (SOFTmax Pro) used for data collection from the fluorometer (Molecular Devices: Gemini XS), it was ensured that the measured slopes were linear (R^2>0.99). […]

[2] = biological target: T2, CYP2D6 (Homo sapiens, UniProt P10635); assay: CYP2D6 assay (Vivid CYP2D6 Cyan Screening Kit); format: in vitro ADME; conditions: read-out: Metabolism: CYP enzymes (20 μM cutoff or IC50) CYP2D6
T2 construct: purchased PanVera
T2 sequence (P10635 whole entry): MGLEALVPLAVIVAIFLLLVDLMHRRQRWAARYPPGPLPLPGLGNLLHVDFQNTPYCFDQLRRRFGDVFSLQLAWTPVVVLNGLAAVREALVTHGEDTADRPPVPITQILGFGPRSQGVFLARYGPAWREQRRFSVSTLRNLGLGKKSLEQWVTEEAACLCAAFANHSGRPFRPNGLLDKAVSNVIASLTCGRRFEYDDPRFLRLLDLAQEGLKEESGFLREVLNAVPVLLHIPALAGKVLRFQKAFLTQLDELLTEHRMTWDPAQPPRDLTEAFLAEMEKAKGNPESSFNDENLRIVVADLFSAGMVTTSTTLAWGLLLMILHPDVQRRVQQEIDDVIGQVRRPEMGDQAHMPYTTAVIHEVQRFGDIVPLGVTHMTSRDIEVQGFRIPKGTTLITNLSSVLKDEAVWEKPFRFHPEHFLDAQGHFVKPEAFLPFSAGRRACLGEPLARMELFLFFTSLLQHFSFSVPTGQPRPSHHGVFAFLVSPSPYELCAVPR
Experimental: (§1) Following the procedure for CYP1A2, using the appropriate kits below, the effect of a compound of the invention on the other CYP enzymes was determined:
Vivid® CYP2D6 Cyan Screening Kit from PanVera.

[3] = biological target: T3, CYP3A4 (Homo sapiens, UniProt P08684); assay: CYP3A4 assay (Vivid CYP3A4 Red Screening Kit); format: in vitro ADME; conditions: read-out: Metabolism: CYP enzymes (20 μM cutoff or IC50) CYP3A4
T3 construct: purchased PanVera
T3 sequence (P08684 2-503 limits assumed): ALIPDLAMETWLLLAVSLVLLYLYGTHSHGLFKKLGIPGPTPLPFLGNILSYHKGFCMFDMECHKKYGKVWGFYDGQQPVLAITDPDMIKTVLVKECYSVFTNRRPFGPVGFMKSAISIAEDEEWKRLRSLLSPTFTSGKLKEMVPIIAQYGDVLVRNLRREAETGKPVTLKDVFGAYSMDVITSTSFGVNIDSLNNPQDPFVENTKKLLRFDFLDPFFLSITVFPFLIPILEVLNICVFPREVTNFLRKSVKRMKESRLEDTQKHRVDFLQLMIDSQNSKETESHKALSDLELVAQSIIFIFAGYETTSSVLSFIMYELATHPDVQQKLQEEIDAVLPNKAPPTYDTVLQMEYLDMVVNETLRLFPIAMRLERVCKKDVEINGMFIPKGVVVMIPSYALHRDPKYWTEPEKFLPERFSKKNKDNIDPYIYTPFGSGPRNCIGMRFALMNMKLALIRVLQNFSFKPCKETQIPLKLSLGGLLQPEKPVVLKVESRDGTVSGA
Experimental: as §1
Vivid® CYP3A4 Red Screening Kit from PanVera.

T1 sequence (P53634 231-394 limits assumed): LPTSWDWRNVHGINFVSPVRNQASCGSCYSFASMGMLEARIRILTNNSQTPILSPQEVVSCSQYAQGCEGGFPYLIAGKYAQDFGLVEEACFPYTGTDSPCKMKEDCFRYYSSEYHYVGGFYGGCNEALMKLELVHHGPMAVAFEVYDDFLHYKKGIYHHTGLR
T1 sequence (P53634 395-463 limits assumed): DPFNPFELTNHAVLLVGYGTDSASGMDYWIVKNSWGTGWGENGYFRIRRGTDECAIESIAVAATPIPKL
T1 sequence (P53634 25-143 limits assumed): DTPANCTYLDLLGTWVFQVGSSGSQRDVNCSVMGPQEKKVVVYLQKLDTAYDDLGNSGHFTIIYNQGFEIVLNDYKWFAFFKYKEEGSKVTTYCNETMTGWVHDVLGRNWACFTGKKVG

## CC[C@H](N)C(=O)N[C@H](C#N)Cc1ccc(-c2ccccc2)cc1 [Example 5, (2S)—N-[(2S)-2-aminobutanoyl]-2-amino-3-(1,1′-biphenyl-4-yl)propionitrile]
[1]
  IC50: 13 ± 3 nM
[2]
  IC50: 12.6 ± 0.677 µM
[3]
  IC50: 3.6 ± 3.41 µM
